Test results from PubChem BioAssay (NCI).
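Interpolation was linear, between the two tested concentrations surrounding the appropriate level; five concentrations were tested over 48 hours in 96-well plates. The concentration for full growth arrest is given as TGI.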

Tests used:
Experiment in all cases: NCI-60 cell line screen, 48 h
[1] = tested on: HL-60(TB) leukemia
[2] = tested on: UACC-62 melanoma
[3] = tested on: NCI/ADR-RES ovarian
[4] = tested on: OVCAR-5 ovarian
[5] = tested on: TK-10 renal
[6] = tested on: SK-MEL-5 melanoma
[7] = tested on: NCI-H23 lung
[8] = tested on: MOLT-4 leukemia
[9] = tested on: SR leukemia
[10] = tested on: IGROV1 ovarian
[11] = tested on: SF-268 CNS
[12] = tested on: PC-3 prostate
[13] = tested on: MDA-MB-435
[14] = tested on: RPMI-8226 leukemia
[15] = tested on: NCI-H460 lung
[16] = tested on: NCI-H522 lung
[17] = tested on: MDA-N
[18] = tested on: 786-0 renal
[19] = tested on: HCT-116 colon
[20] = tested on: T-47D breast
[21] = tested on: SW-620 colon
[22] = tested on: SK-MEL-2 melanoma
[23] = tested on: NCI-H226 lung
[24] = tested on: SK-OV-3 ovarian
[25] = tested on: ACHN renal
[26] = tested on: SNB-19 CNS
[27] = tested on: K-562 leukemia
[28] = tested on: BT-549 breast
[29] = tested on: MALME-3M melanoma
[30] = tested on: A549 NSCLC
[31] = tested on: MCF7 breast
[32] = tested on: EKVX NSCLC
[33] = tested on: UO-31 renal
[34] = tested on: UACC-257 melanoma
[35] = tested on: OVCAR-4 ovarian
[36] = tested on: U251 CNS
[37] = tested on: COLO 205 colon
[38] = tested on: HCT-15 colon
[39] = tested on: LOX IMVI melanoma
[40] = tested on: OVCAR-3 ovarian
[41] = tested on: MDA-MB-231 breast
[42] = tested on: KM12 colon
[43] = tested on: SN12C renal
[44] = tested on: M14 melanoma
[45] = tested on: HT29 colon
[46] = tested on: RXF 393 renal
[47] = tested on: CAKI-1 renal
[48] = tested on: SF-295 CNS
[49] = tested on: OVCAR-8 ovarian
[50] = tested on: SF-539 CNS
[51] = tested on: DU-145 prostate
[52] = tested on: HOP-92 NSCLC
[53] = tested on: SNB-75 CNS
[54] = tested on: SK-MEL-28 melanoma
[55] = tested on: A498 renal
[56] = tested on: CCRF-CEM leukemia
[57] = tested on: HCC-2998 colon
[58] = tested on: HOP-62 NSCLC

Question: What does the source list for `Oc1ccc(-c2nc3ccc(F)cc3s2)cc1`?
Answer: TGI [1]: 51.8 µM; TGI [2]: 34.8 µM; TGI [3]: 52.8 µM; TGI [4]: 44.7 µM; TGI [5]: 34.1 µM; TGI [6]: 38 µM; TGI [7]: 48.3 µM; TGI [8]: > 100 µM; TGI [9]: 53.4 µM; TGI [10]: 34.6 µM; TGI [11]: 58.9 µM; TGI [12]: 44.5 µM; TGI [13]: 41.5 µM; TGI [14]: 63.9 µM; TGI [15]: 59 µM; TGI [16]: 26.9 µM; TGI [17]: 70.6 µM; TGI [18]: 36 µM; TGI [19]: 32.9 µM; TGI [20]: 36 µM; TGI [21]: > 100 µM; TGI [22]: 34.9 µM; TGI [23]: 44.5 µM; TGI [24]: 42.8 µM; TGI [25]: 38.6 µM; TGI [26]: 51.2 µM; TGI [27]: > 100 µM; TGI [28]: 37.4 µM; TGI [29]: 38.5 µM; TGI [30]: 43.1 µM; TGI [31]: 59.1 µM; TGI [32]: 25.4 µM; TGI [33]: 30.1 µM; TGI [34]: 37.2 µM; TGI [35]: 58.1 µM; TGI [36]: 39.9 µM; TGI [37]: 29.9 µM; TGI [38]: 35 µM; TGI [39]: 39.7 µM; TGI [40]: 90.9 µM; TGI [41]: 49 µM; TGI [42]: 33.8 µM; TGI [43]: 40.9 µM; TGI [44]: 37.3 µM; TGI [45]: 31.3 µM; TGI [46]: 68.2 µM; TGI [47]: 37 µM; TGI [48]: 33.9 µM; TGI [49]: 39.9 µM; TGI [50]: 34 µM; TGI [51]: 30.3 µM

Question: How did the TGI [1] turn out when `Cc1nc2ccccc2c(=O)n1NC(=O)c1ccc(N)cc1` was run?
Answer: > 100 µM

Question: And the TGI [2]?
Answer: > 100 µM

Question: And the TGI [4]?
Answer: > 100 µM

Question: What about the TGI [5] of the same compound?
Answer: > 100 µM

Question: And the TGI [6]?
Answer: > 100 µM

Question: What about the TGI [7] of the same compound?
Answer: > 100 µM

Question: What about the TGI [8] of the same compound?
Answer: > 100 µM

Question: And the TGI [9]?
Answer: > 100 µM

Question: What about the TGI [10] of the same compound?
Answer: > 100 µM

Question: And the TGI [11]?
Answer: > 100 µM

Question: What about the TGI [52] of the same compound?
Answer: > 100 µM

Question: And the TGI [12]?
Answer: > 100 µM

Question: What about the TGI [53] of the same compound?
Answer: > 100 µM

Question: What about the TGI [13] of the same compound?
Answer: > 100 µM

Question: And the TGI [14]?
Answer: > 100 µM

Question: What about the TGI [15] of the same compound?
Answer: > 100 µM

Question: What about the TGI [16] of the same compound?
Answer: > 100 µM

Question: What about the TGI [17] of the same compound?
Answer: > 100 µM

Question: And the TGI [18]?
Answer: > 100 µM

Question: And the TGI [19]?
Answer: > 100 µM

Question: And the TGI [20]?
Answer: > 100 µM

Question: And the TGI [21]?
Answer: > 100 µM

Question: What about the TGI [23] of the same compound?
Answer: > 100 µM

Question: What about the TGI [54] of the same compound?
Answer: > 100 µM

Question: What about the TGI [24] of the same compound?
Answer: > 100 µM

Question: What about the TGI [25] of the same compound?
Answer: > 100 µM

Question: And the TGI [26]?
Answer: > 100 µM

Question: What about the TGI [27] of the same compound?
Answer: > 100 µM

Question: What about the TGI [28] of the same compound?
Answer: > 100 µM

Question: What about the TGI [29] of the same compound?
Answer: > 100 µM

Question: And the TGI [30]?
Answer: > 100 µM

Question: And the TGI [31]?
Answer: > 100 µM

Question: And the TGI [32]?
Answer: > 100 µM

Question: What about the TGI [33] of the same compound?
Answer: > 100 µM

Question: And the TGI [34]?
Answer: > 100 µM

Question: And the TGI [35]?
Answer: > 100 µM

Question: What about the TGI [36] of the same compound?
Answer: > 100 µM

Question: And the TGI [55]?
Answer: > 100 µM

Question: And the TGI [37]?
Answer: > 100 µM

Question: What about the TGI [56] of the same compound?
Answer: > 100 µM

Question: What about the TGI [39] of the same compound?
Answer: > 100 µM

Question: What about the TGI [40] of the same compound?
Answer: > 100 µM

Question: What about the TGI [41] of the same compound?
Answer: > 100 µM

Question: And the TGI [42]?
Answer: > 100 µM

Question: And the TGI [43]?
Answer: > 100 µM

Question: What about the TGI [57] of the same compound?
Answer: > 100 µM

Question: And the TGI [44]?
Answer: > 100 µM

Question: And the TGI [58]?
Answer: > 100 µM

Question: What about the TGI [45] of the same compound?
Answer: > 100 µM

Question: What about the TGI [46] of the same compound?
Answer: > 100 µM

Question: What about the TGI [48] of the same compound?
Answer: > 100 µM

Question: And the TGI [49]?
Answer: > 100 µM

Question: What about the TGI [50] of the same compound?
Answer: > 100 µM

Question: What about the TGI [51] of the same compound?
Answer: > 100 µM

Question: `CCc1c(-c2ccccc2)[nH]c2ccccc2c1=O` was tested. Which TGI [1] did it give?
Answer: > 100 µM

Question: And the TGI [2]?
Answer: > 100 µM

Question: What about the TGI [4] of the same compound?
Answer: > 100 µM

Question: And the TGI [5]?
Answer: > 100 µM

Question: And the TGI [6]?
Answer: > 100 µM

Question: What about the TGI [7] of the same compound?
Answer: > 100 µM

Question: What about the TGI [8] of the same compound?
Answer: > 100 µM

Question: What about the TGI [9] of the same compound?
Answer: > 100 µM

Question: And the TGI [11]?
Answer: > 100 µM

Question: And the TGI [13]?
Answer: > 100 µM

Question: What about the TGI [14] of the same compound?
Answer: > 100 µM

Question: What about the TGI [15] of the same compound?
Answer: > 100 µM

Question: What about the TGI [17] of the same compound?
Answer: > 100 µM

Question: And the TGI [19]?
Answer: > 100 µM

Question: And the TGI [20]?
Answer: > 100 µM

Question: What about the TGI [22] of the same compound?
Answer: > 100 µM

Question: What about the TGI [23] of the same compound?
Answer: 84 µM

Question: What about the TGI [54] of the same compound?
Answer: > 100 µM

Question: What about the TGI [24] of the same compound?
Answer: > 100 µM

Question: And the TGI [25]?
Answer: > 100 µM

Question: And the TGI [26]?
Answer: > 100 µM

Question: What about the TGI [27] of the same compound?
Answer: > 100 µM

Question: And the TGI [28]?
Answer: > 100 µM

Question: What about the TGI [29] of the same compound?
Answer: > 100 µM

Question: What about the TGI [30] of the same compound?
Answer: > 100 µM

Question: What about the TGI [31] of the same compound?
Answer: > 100 µM

Question: And the TGI [32]?
Answer: > 100 µM

Question: What about the TGI [33] of the same compound?
Answer: 0.266 µM

Question: And the TGI [34]?
Answer: > 100 µM

Question: And the TGI [35]?
Answer: > 100 µM

Question: What about the TGI [36] of the same compound?
Answer: > 100 µM

Question: What about the TGI [55] of the same compound?
Answer: > 100 µM

Question: And the TGI [56]?
Answer: > 100 µM

Question: And the TGI [38]?
Answer: > 100 µM

Question: What about the TGI [39] of the same compound?
Answer: > 100 µM

Question: What about the TGI [40] of the same compound?
Answer: > 100 µM

Question: What about the TGI [41] of the same compound?
Answer: > 100 µM

Question: And the TGI [42]?
Answer: > 100 µM

Question: What about the TGI [43] of the same compound?
Answer: > 100 µM

Question: What about the TGI [57] of the same compound?
Answer: > 100 µM

Question: And the TGI [44]?
Answer: > 100 µM

Question: What about the TGI [58] of the same compound?
Answer: > 100 µM

Question: What about the TGI [45] of the same compound?
Answer: > 100 µM

Question: What about the TGI [46] of the same compound?
Answer: > 100 µM

Question: What about the TGI [47] of the same compound?
Answer: > 100 µM

Question: What about the TGI [50] of the same compound?
Answer: > 100 µM

Question: What about the TGI [51] of the same compound?
Answer: > 100 µM
